By DC50 is commonly meant the concentration giving 50% degradation.

The first experiment concerns SMARTCAR-MTH1-wt-HiBiT (Jurkat.7 cells). Description: HiBit Lytic Assay (HiBit DC50, MTH1 degraders of Table 2). Format: cell-based, human. The conditions noted are these: Jurkat.7 SMARTCAR-MTH1-wt-HiBiT cells, compound treatment time 4 hr, 11-point half log dose response. The essentials: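 Jurkat.7 cells expressing SMARTCAR-MTH1-wt-HiBiT were treated at 37° C with 11-point half-log dilutions (top final 1000 nM or 833 nM, duplicates, 0.1% DMSO). Remaining HiBiT-tagged protein was read by Nano-Glo HiBiT lytic luminescence, normalized to media-only and DMSO controls.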
(The HiBiT peptide binds its large partner to form an active luciferase.)
`CC(C)NC(=O)c1cnc2ccc(NCCCCCCCCCCNC(=O)COc3cccc4c3C(=O)N(C3CCC(=O)NC3=O)C4=O)cc2c1Nc1ccccc1` (centres unmarked) [Compound 457, 6-((10-(2-((2-(2,6-dioxopiperidin-3-yl)-1,3-dioxoisoindolin-4-yl)oxy)acetamido)decyl)amino)-N-isopropyl-4-(phenylamino)quinoline-3-carboxamide] had a DC50 of less than 100 nM.
Same read-out and setting: next, `CNC(=O)c1cnc2ccc(C(=O)NCCCCCCNC(=O)COc3cccc4c3C(=O)N(C3CCC(=O)NC3=O)C4=O)cc2c1Nc1ccccc1` (centres unmarked) [Compound 458, N6-(6-(2-((2-(2,6-dioxopiperidin-3-yl)-1,3-dioxoisoindolin-4-yl)oxy)acetamido)hexyl)-N3-methyl-4-(phenylamino)quinoline-3,6-dicarboxamide]: less than 100 nM; `CNC(=O)c1cnc2ccc(CC(=O)NCCCCCCCCNC(=O)COc3cccc4c3C(=O)N(C3CCC(=O)NC3=O)C4=O)cc2c1Nc1ccccc1` (centres unmarked) [Compound 459, 6-(2-((8-(2-((2-(2,6-dioxopiperidin-3-yl)-1,3-dioxoisoindolin-4-yl)oxy)acetamido)octyl)amino)-2-oxoethyl)-N-methyl-4-(phenylamino)quinoline-3-carboxamide]: less than 100 nM; `NC(=O)c1cnc2ccc(NCCCCCCCCCCNC(=O)CNc3cccc4c3C(=O)N(C3CCC(=O)NC3=O)C4=O)cc2c1Nc1ccccc1` (centres unmarked) [Compound 464, 6-((10-(2-((2-(2,6-dioxopiperidin-3-yl)-1,3-dioxoisoindolin-4-yl)amino)acetamido)decyl)amino)-4-(phenylamino)quinoline-3-carboxamide]: less than 100 nM.
On the same count and under the same terms, next, `NC(=O)c1cnc2ccc(NCCCCCCCCCCNC(=O)COc3cccc4c3C(=O)N(C3CCC(=O)NC3=O)C4=O)cc2c1Nc1ccccc1` (centres unmarked) [Compound 465, 6-((10-(2-((2-(2,6-dioxopiperidin-3-yl)-1,3-dioxoisoindolin-4-yl)oxy)acetamido)decyl)amino)-4-(phenylamino)quinoline-3-carboxamide]: less than 100 nM; `NC(=O)c1cnc2ccc(NCCCCCCCCNC(=O)COc3cccc4c3C(=O)N(C3CCC(=O)NC3=O)C4=O)cc2c1Nc1ccccc1` (centres unmarked) [Compound 466, 6-((8-(2-((2-(2,6-dioxopiperidin-3-yl)-1,3-dioxoisoindolin-4-yl)oxy)acetamido)octyl)amino)-4-(phenylamino)quinoline-3-carboxamide]: less than 100 nM; `NC(=O)c1cnc2ccc(NC(=O)CCCCCCCCCNC(=O)COc3cccc4c3C(=O)N(C3CCC(=O)NC3=O)C4=O)cc2c1Nc1ccccc1` (centres unmarked) [Compound 467, 6-(10-(2-((2-(2,6-dioxopiperidin-3-yl)-1,3-dioxoisoindolin-4-yl)oxy)acetamido)decanamido)-4-(phenylamino)quinoline-3-carboxamide]: less than 100 nM.
On the same count and under the same terms, next, `CNC(=O)c1cnc2ccc(-c3ccc(C(=O)NCCCCNC(=O)CN(C)c4cccc5c4C(=O)N(C4CCC(=O)NC4=O)C5=O)cc3)cc2c1Nc1ccccc1` (centres unmarked) [Compound 471, 6-(4-((4-(2-((2-(2,6-dioxopiperidin-3-yl)-1,3-dioxoisoindolin-4-yl)(methyl)amino)acetamido)butyl)carbamoyl)phenyl)-N-methyl-4-(phenylamino)quinoline-3-carboxamide]: less than 100 nM; `CNC(=O)c1cnc2ccc(-c3ccc(C(=O)NCCCNC(=O)CNc4cccc5c4C(=O)N(C4CCC(=O)NC4=O)C5=O)cc3)cc2c1Nc1ccccc1` (centres unmarked) [Compound 472, 6-(4-((3-(2-((2-(2,6-dioxopiperidin-3-yl)-1,3-dioxoisoindolin-4-yl)amino)acetamido)propyl)carbamoyl)phenyl)-N-methyl-4-(phenylamino)quinoline-3-carboxamide]: less than 100 nM.
For the compound `CNC(=O)c1cnc2ccc(-c3ccc(C(=O)NCCCNC(=O)CN(C)c4cccc5c4C(=O)N(C4CCC(=O)NC4=O)C5=O)cc3)cc2c1Nc1ccccc1` (centres unmarked) [Compound 473, 6-(4-((3-(2-((2-(2,6-dioxopiperidin-3-yl)-1,3-dioxoisoindolin-4-yl)(methyl)amino)acetamido)propyl)carbamoyl)phenyl)-N-methyl-4-(phenylamino)quinoline-3-carboxamide], the DC50 is less than 100 nM.
Same read-out and setting: next, `CNC(=O)c1cnc2ccc(-c3ccc(C(=O)NCCCCNC(=O)CN(C)c4cccc5c4C(=O)N(C4CCC(=O)NC4=O)C5=O)cc3)cc2c1Nc1ccccc1` (centres unmarked) [Compound 474, 6-(4-((4-(2-((2-(2,6-dioxopiperidin-3-yl)-1,3-dioxoisoindolin-4-yl)(methyl)amino)acetamido)butyl)carbamoyl)phenyl)-N-methyl-4-(phenylamino)quinoline-3-carboxamide]: less than 100 nM.
Regarding `CNC(=O)c1cnc2cc(OC)c(-c3ccc(C(=O)NCCCCNC(=O)COc4cccc5c4C(=O)N(C4CCC(=O)NC4=O)C5=O)cc3)cc2c1Nc1ccccc1` (centres unmarked) [Compound 475, 6-(4-((4-(2-((2-(2,6-dioxopiperidin-3-yl)-1,3-dioxoisoindolin-4-yl)oxy)acetamido)butyl)carbamoyl)phenyl)-7-methoxy-N-methyl-4-(phenylamino)quinoline-3-carboxamide], the DC50 was less than 100 nM.

The target of the next experiment is T1, BRD9 (Homo sapiens, UniProt Q9H8M2).
T1 sequence (Q9H8M2 1-597): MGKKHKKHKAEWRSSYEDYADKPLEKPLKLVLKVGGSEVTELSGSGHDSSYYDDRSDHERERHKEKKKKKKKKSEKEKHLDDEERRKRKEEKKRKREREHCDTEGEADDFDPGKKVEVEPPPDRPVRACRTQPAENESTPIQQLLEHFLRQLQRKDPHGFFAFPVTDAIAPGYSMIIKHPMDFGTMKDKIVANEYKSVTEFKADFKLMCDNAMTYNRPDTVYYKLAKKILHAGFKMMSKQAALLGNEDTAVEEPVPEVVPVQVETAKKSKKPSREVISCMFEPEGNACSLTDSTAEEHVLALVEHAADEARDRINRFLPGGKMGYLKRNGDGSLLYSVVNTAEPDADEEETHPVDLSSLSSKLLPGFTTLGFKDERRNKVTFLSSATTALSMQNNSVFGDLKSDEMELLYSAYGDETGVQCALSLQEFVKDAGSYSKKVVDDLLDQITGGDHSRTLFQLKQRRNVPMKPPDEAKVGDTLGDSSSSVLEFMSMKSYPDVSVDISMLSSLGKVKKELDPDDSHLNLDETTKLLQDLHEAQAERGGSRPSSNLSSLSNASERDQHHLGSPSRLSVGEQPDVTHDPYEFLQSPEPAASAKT
Description: HiBit Lytic Assay (HiBit DC50, BRD9 degraders of Table 1). It is filed as cell-based. The settings on record: 11-point half log dose response, NanoLuc signal. As to the method:
Example 3. HiBit Lytic Assay
• Compound is made at 10 mM, half log dilution, 11 points. • MDR plates can also be ordered from Frontier with same format. • 1. Barcode a 384LDV plate (384-well Low Dead Volume Microplate, Labcyte LP-0200) (Echo compatible) on the left side. • 2. Transfer 13.6 μL of 10 mM compound into column 1 of LDV plate (Labcyte). • 3. Fill column 2-11 and column 23 of MDR plate with 9.30 μL of DMSO. • 4. Serial dilute 3.16 fold from column 1 to 2 by transferring 4.30 μL from column 1 to column 2, and so on to column 11. *Change tip in every dilution to prevent compound carryover effect! • 5. Seal the plate with Plate Sealer, then store the MDR plate at room temperature for short term storage and in −20° C. for long term storage.
• Cells are treated with 30 nL of each compound at 10 mM, half log dilution, 11 points with final concentration of 1000 nM or 833 nM, half log dilution, 11 points, in duplicates. Final DMSO concentration is 0.1%. • 1. Barcode the plates made on the left side and label the plates with silver marker. • 2. Dispense with the following scheme: • a. 30 nL of compound into corresponding wells in cell plates via Echo550 with “MDR32_HiBiT16_30 nL”. Top concentration will be 1000 nM. • 3. Seal the plate with Plate Sealer.
• Cells are dispensed at density specified in Cell Line Table in 384-well microplate. • 1. Culture cells to between 50-80% of confluence in sterile culture flasks of appropriate size. • 2. For Adherent Cell Lines: • a. Aspirate off growth media in culture flask, and wash off the Phenol Red media with 5 mL of 1×PBS. • b. Add 5 mL of Trypsin to the cells, incubate at 37° C. for 5 minutes. • c. Add 5 mL of growth media to the trypsinzed cells, and resuspend. • 3. Remove 10 μL of cells, and resuspend the cells with 10 μL of Trypan Blue. Insert the solution to counting chamber slide, and count the cells via cell counter. • 4. Adjust the cell concentration to specified plating density, and strain the cells with cell strainer. • 5. Dispense the cells via E1-ClipTip™ Electronic Multichannel Pipettes or Multidrop™ Combi Reagent Dispenser with Standard tube dispensing cassette: • a. Prime the cassette with 10-20 mL of ddH2O. • b. Prime the cassette with 10-20 mL of cells. • c. Dispense the cells at low speed for 30 μL/well in Corning® 384 Well Low Flange Black Flat Bottom Polystyrene TC-Treated Microplate. • d. Wash the cassette with 10-20 mL of ddH2O, follow by 10-20 mL of 70% EtOH, then again with 10-20 mL of ddH2O. • 6. Incubate the plates at 37° C.×compound treatment time.
• 1. If not already, bring Nano-Glo® HiBiT Lytic Buffer to room temperature. • 2. Determine the amount of reagent needed. A volume of reagent equal to the volume of media in the well should be added (i.e. 30 μL of cells will need 30 μL of HiBiT Lytic reagent). • 3. Into a given volume of buffer, dilute the substrate 50-fold and the LgBiT protein 100-fold. For example, to make 10 ml of reagent, add the following: • 10 ml Nano-Glo® HiBiT Lytic Buffer • 200 μl Nano-Glo® HiBiT Lytic Substrate • 100 μl LgBiT Protein • The reagent should be reconstituted immediately before use. However, once reconstituted, it should take about 4 hours for the activity to decrease 10%. • 4. Cool down the cell plate to room temperature for 10-15 minutes without lid. • 5. Dispense the HiBiT Lytic Reagent via E1-ClipTip™ Electronic Multichannel Pipettes or Multidrop™ Combi Reagent Dispenser with Standard tube dispensing cassette: • a. Prime the cassette with 10-20 mL of ddH2O. • b. Prime the cassette with 10-20 mL of CTG 2.0. • c. Dispense the HiBiT Lytic Reagent at medium speed for 30 μL/well in cell plate to column 1-23 (column 24 will be used as plate background). • d. Wash the cassette with 10-20 mL of ddH2O, follow by 10-20 mL of 70% EtOH, then again with 10-20 mL of ddH2O. • 6. Incubate the cell plate at room temperature for 10 minutes without lid. • 7. […]
In the case of `COc1cc(-c2cn(C)c(=O)c3c2cnn3C)cc(OC)c1CN(C)CC(=O)NCCCCCCCCNc1cccc2c1C(=O)N(C1CCC(=O)NC1=O)C2=O` (centres unmarked) [Compound 200, 2-[[4-(1,6-dimethyl-7-oxo-pyrazolo[3,4-c]pyridin-4-yl)-2,6-dimethoxy-phenyl]methyl-methyl-amino]-N-[8-[[2-(2,6-dioxo-3-piperidyl)-1,3-dioxo-isoindolin-4-yl]amino]octyl]acetamide], the DC50 was less than 100 nM.
On the same count and under the same terms, to `COc1cc(-c2cn(C)c(=O)c3[nH]ncc23)cc(OC)c1CN(C)CC(=O)NCCCCCCCCNc1cccc2c1C(=O)N(C1CCC(=O)NC1=O)C2=O` (centres unmarked) [Compound 201, 2-[[2,6-dimethoxy-4-(6-methyl-7-oxo-1H-pyrazolo[3,4-c]pyridin-4-yl)phenyl]methyl-methyl-amino]-N-[8-[[2-(2,6-dioxo-3-piperidyl)-1,3-dioxo-isoindolin-4-yl]amino]octyl]acetamide] belongs less than 100 nM.

Source of the values: patent US20210198256A1, “COMPOUNDS FOR THE DEGRADATION OF BRD9 OR MTH1” (C4 Therapeutics, Inc., priority 2018, published 2021).
